Some test systems named below: OVCAR-5; IGROV-1; HL-60; NCI/ADR-RES; HT-29; RPMI-8226; HOP-62; COLO 205; PC-3; HCC 2998; MCF7; CCRF-CEM; U-251; Malme-3M; T47D; HCT-116; DU-145; OVCAR-8; MOLT-4; SF-539.
Test in all cases: NCI-60 cell line screen, 48 h

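The compound was tested at five concentrations on cells cultured in 96-well plates, with a 48-hour exposure period. The concentration for 50% growth inhibition is given as GI50.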 The source made the active and inactive calls. Cut-off read from the data, not from the text of the source: active = GI50 up to about 1.1 µM and inactive = higher. Where only a bound is given, the exact number is not on record here.

The values below come from ChEMBL document CHEMBL1201862, “PubChem BioAssay data set” (2004).

Take `S=C1NCN2CCN(CC2)CNC(=S)C(=S)NCN2CCN(CC2)CNC1=S`: the GI50 in the test on OVCAR-5 was > 100 µM (inactive); with IGROV-1 it was 64.3 µM (inactive); in the test on HL-60, 24.2 µM (inactive); in the test on NCI/ADR-RES, 67.5 µM (inactive); in the test on HT-29, 85.5 µM (inactive); in the test on RPMI-8226 it was 23.7 µM (inactive). For the same compound, the GI50 is 37.9 µM (inactive) with HOP-62; 35.6 µM (inactive) in the test on COLO 205; 35.2 µM (inactive) with PC-3; 78.5 µM (inactive) with HCC 2998; 54.5 µM (inactive) with MCF7; 18.5 µM (inactive) in the test with CCRF-CEM. Besides, the GI50 with U-251 is 37.7 µM (inactive); in the test on Malme-3M, > 100 µM (inactive); in the test with T47D it was > 100 µM (inactive); with HCT-116, 79.4 µM (inactive); in the test on DU-145 it was 36.8 µM (inactive); in the test on OVCAR-8 it was 31.8 µM (inactive).

`COC(=O)c1c(C#N)c(N)nc2c1CCC2`: the GI50 in the test on OVCAR-5, in the test on IGROV-1, in the test on MOLT-4, in the test with HL-60, with NCI/ADR-RES and in the test on HT-29 was > 100 µM (inactive) throughout. Moreover, the GI50 in the test on RPMI-8226, in the test on HOP-62, with COLO 205, in the test with PC-3, with HCC 2998 and in the test with MCF7 was > 100 µM (inactive) in each case. Also, the GI50 in the test with CCRF-CEM is 99.8 µM (inactive); in the test with U-251 it was > 100 µM (inactive); in the test on Malme-3M, > 100 µM (inactive); with T47D, 75.5 µM (inactive); in the test on HCT-116 it was > 100 µM (inactive); with DU-145 it was > 100 µM (inactive). In the test on OVCAR-8, the GI50 was > 100 µM (inactive).

For the compound `O=C(O)c1ccc(CNCc2ccccc2)cc1`, the GI50 with OVCAR-5, in the test with IGROV-1, with MOLT-4, in the test on HL-60, in the test on NCI/ADR-RES and in the test on HT-29 was > 100 µM (inactive) in each case. In addition, the GI50 with RPMI-8226, in the test on HOP-62, in the test with COLO 205, in the test on PC-3, in the test on MCF7 and with SF-539 was > 100 µM (inactive) each time. The GI50 with CCRF-CEM, in the test with U-251, in the test on Malme-3M, in the test with T47D, in the test on HCT-116 and in the test with DU-145 was > 100 µM (inactive) throughout. In addition, the GI50 with OVCAR-8 was > 100 µM (inactive).

Take `Nc1nc(N)c2ncn(CC3CCC(CO)C3)c2n1` (stereo unspecified): the GI50 in the test with OVCAR-5, in the test on MOLT-4, in the test with NCI/ADR-RES, with RPMI-8226, with HOP-62 and in the test on COLO 205 was > 100 µM (inactive) in each case. The GI50 in the test on PC-3, in the test with HCC 2998, with MCF7, in the test with SF-539, in the test with CCRF-CEM and in the test on U-251 was > 100 µM (inactive) in each case. Further, the GI50 with T47D, in the test on HCT-116 and in the test with DU-145 was > 100 µM (inactive) each time.

Regarding `Nc1nc(Cl)c(N)c(NCC2(CO)CC(Cc3ccccc3)C2)n1` (stereo unspecified), the GI50 in the test with OVCAR-5 was > 100 µM (inactive); in the test on IGROV-1 it was > 78.5 µM (inactive); in the test with MOLT-4 it was 16.3 µM (inactive); with HL-60, 4.8 µM (inactive); in the test with NCI/ADR-RES it was 15.1 µM (inactive); in the test on HT-29, 70.6 µM (inactive). The GI50 in the test with RPMI-8226 was 2.41 µM (inactive); in the test with HOP-62 it was > 49.3 µM (inactive); with COLO 205 it was 34.9 µM (inactive); with PC-3, 51.3 µM (inactive); in the test on HCC 2998 it was > 93.5 µM (inactive); with MCF7, 7.87 µM (inactive). The GI50 with SF-539 was > 100 µM (inactive); with CCRF-CEM it was 23.1 µM (inactive); in the test on U-251, 14.6 µM (inactive); in the test with T47D it was 0.923 µM (active); with HCT-116, 3.15 µM (inactive); in the test on DU-145 it was > 100 µM (inactive). In the test with OVCAR-8, the GI50 was 56.9 µM (inactive).

As to `CC(=O)O[C@H]1CC[C@@H](OC(C)=O)[C@H]2[C@H](O)[C@H](O)[C@@H]1n1c(=O)n(-c3ccccc3)c(=O)n12`, the GI50 in the test with OVCAR-5, in the test on IGROV-1, in the test on MOLT-4, in the test on HL-60, in the test on NCI/ADR-RES and with HT-29 was > 100 µM (inactive) in each case. The GI50 in the test with RPMI-8226, in the test with HOP-62, with COLO 205, in the test on PC-3, in the test with MCF7 and in the test on SF-539 was > 100 µM (inactive) in each case. Also, the GI50 with CCRF-CEM, with U-251, with Malme-3M, in the test with T47D, in the test with HCT-116 and in the test with DU-145 was > 100 µM (inactive) each time. Moreover, the GI50 in the test on OVCAR-8 was > 100 µM (inactive).

For `N#Cc1c(O)n(-c2ccccc2)c(=O)c2c(N)n[nH]c12`, the GI50 in the test on OVCAR-5, in the test with IGROV-1, with MOLT-4, in the test with HL-60, in the test with NCI/ADR-RES and with HT-29 was > 100 µM (inactive) throughout. Also, the GI50 in the test with RPMI-8226, with COLO 205, in the test with PC-3, in the test on HCC 2998, with MCF7 and in the test with SF-539 was > 100 µM (inactive) each time. Besides, the GI50 in the test with U-251, in the test with Malme-3M, in the test on T47D, in the test on HCT-116, with DU-145 and with OVCAR-8 was > 100 µM (inactive) in each case.

`Nc1sccc1S(=O)(=O)c1ccsc1N`: the GI50 with OVCAR-5, with IGROV-1, with MOLT-4, with NCI/ADR-RES, in the test with HT-29 and in the test on RPMI-8226 was > 100 µM (inactive) throughout. The GI50 with HOP-62, in the test on COLO 205, with PC-3, in the test on HCC 2998, with MCF7 and in the test on SF-539 was > 100 µM (inactive) each time. The GI50 in the test on U-251, with Malme-3M, in the test on T47D, with HCT-116, in the test on DU-145 and in the test with OVCAR-8 was > 100 µM (inactive) in each case.

As for `COc1cc2c(cc1OCc1ccccc1)NC(=O)[C@@H]1C[C@@H](O)CN1C2=O`, the GI50 in the test on OVCAR-5, with IGROV-1, with MOLT-4, with NCI/ADR-RES, in the test with HT-29 and in the test with RPMI-8226 was > 100 µM (inactive) each time. Further, the GI50 in the test on HOP-62 is 47.6 µM (inactive); in the test on COLO 205 it was > 100 µM (inactive); with PC-3 it was > 100 µM (inactive); in the test on HCC 2998, > 100 µM (inactive); with MCF7, > 100 µM (inactive); in the test on SF-539 it was > 100 µM (inactive). The GI50 with CCRF-CEM, in the test on U-251, in the test on Malme-3M, in the test on T47D, in the test on HCT-116 and in the test with DU-145 was > 100 µM (inactive) throughout. Besides, in the test on OVCAR-8, the GI50 was > 100 µM (inactive).

As to `Cc1ccc(C(=O)/C=C/N2CCN(c3cccc(C(F)(F)F)c3)CC2)cc1`, the GI50 is 21.4 µM (inactive) in the test on OVCAR-5; 16.3 µM (inactive) in the test on IGROV-1; 15.1 µM (inactive) in the test with MOLT-4; 22.8 µM (inactive) with HL-60; 17.9 µM (inactive) in the test on NCI/ADR-RES; 17.9 µM (inactive) in the test with HT-29. The GI50 in the test with RPMI-8226 is 31.9 µM (inactive); with HOP-62 it was 20.7 µM (inactive); in the test on COLO 205, 24.3 µM (inactive); in the test on PC-3, 25.1 µM (inactive); with HCC 2998, 12.4 µM (inactive); in the test with MCF7, 18 µM (inactive). Moreover, the GI50 is 15.9 µM (inactive) in the test on SF-539; 16.8 µM (inactive) in the test on U-251; 18.6 µM (inactive) in the test with Malme-3M; 20.1 µM (inactive) in the test with T47D; 16.7 µM (inactive) with HCT-116; 16 µM (inactive) with DU-145. Also, the GI50 in the test on OVCAR-8 is 17.5 µM (inactive).

For `CC(C)[Si](OC1=CCC[C@H]2NC(=O)[C@@H](Cc3ccc([N+](=O)[O-])cc3)[C@@]12C)(C(C)C)C(C)C`, the GI50 in the test with OVCAR-5 was 8.65 µM (inactive); in the test with IGROV-1, 11.3 µM (inactive); in the test on MOLT-4 it was 3.72 µM (inactive); in the test with HL-60, 3.44 µM (inactive); with NCI/ADR-RES, 11.7 µM (inactive); in the test with HT-29 it was 2.12 µM (inactive). Besides, the GI50 with HOP-62 was 4.3 µM (inactive); with COLO 205, 3.98 µM (inactive); in the test with PC-3, 3.4 µM (inactive); in the test with HCC 2998, 1.95 µM (inactive); in the test on MCF7, 3.73 µM (inactive); in the test with SF-539, 2.42 µM (inactive). Also, the GI50 in the test on CCRF-CEM was 2.86 µM (inactive); with Malme-3M, 16.6 µM (inactive); in the test on T47D it was 4.73 µM (inactive); in the test on HCT-116, 3.68 µM (inactive); in the test on DU-145, 9.46 µM (inactive); with OVCAR-8, 11.6 µM (inactive).
